Measured values from PubChem BioAssay (NCI).
Several values for one entry are separate records, joined by “and”; a condition that tells them apart may be missing. Equal entries are not always repeated.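 Five compound concentrations were applied to cells in 96-well plates for 48 hours; endpoints were derived by simple linear interpolation of the resulting dose-response curve. GI50 = concentration required for 50% inhibition of growth. TGI marks complete inhibition of growth.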

Key:
Assay in all cases: NCI anticancer screen, dose series, 48 h
OVCAR-3 ovarian = system: OVCAR-3 ovarian
786-0 renal = system: 786-0 renal
MOLT-4 leukemia = system: MOLT-4 leukemia
DU-145 prostate = system: DU-145 prostate
HOP-92 NSCLC = system: HOP-92 NSCLC
UACC-257 melanoma = system: UACC-257 melanoma
SK-MEL-5 melanoma = system: SK-MEL-5 melanoma
IGROV1 ovarian = system: IGROV1 ovarian
HOP-62 NSCLC = system: HOP-62 NSCLC
SW-620 colon = system: SW-620 colon

Structure (SMILES)	GI50 (OVCAR-3 ovarian)	TGI (OVCAR-3 ovarian)	GI50 (786-0 renal)	TGI (786-0 renal)	GI50 (MOLT-4 leukemia)	TGI (MOLT-4 leukemia)	GI50 (DU-145 prostate)	TGI (DU-145 prostate)	GI50 (HOP-92 NSCLC)	TGI (HOP-92 NSCLC)	GI50 (UACC-257 melanoma)	TGI (UACC-257 melanoma)	GI50 (SK-MEL-5 melanoma)	TGI (SK-MEL-5 melanoma)	GI50 (IGROV1 ovarian)	TGI (IGROV1 ovarian)	GI50 (HOP-62 NSCLC)	TGI (HOP-62 NSCLC)	GI50 (SW-620 colon)	TGI (SW-620 colon)
O=C(O)C(/C=C/c1ccco1)=N\Nc1nc(-c2ccc(Cl)cc2)cs1	9.51 µM	> 50 µM	14.3 µM	> 50 µM	8.62 µM	> 50 µM	15.8 µM	> 50 µM	10.1 µM	49.4 µM	16.8 µM	> 50 µM	14.8 µM	> 50 µM	7.93 µM	29.6 µM	16.5 µM	> 50 µM	22.5 µM	> 50 µM
Nc1nc(-n2cccn2)nc(-n2cccn2)c1Br	> 100 µM	> 100 µM	> 100 µM	> 100 µM	> 100 µM	> 100 µM	> 100 µM	> 100 µM	> 100 µM	> 100 µM	> 100 µM	> 100 µM	> 100 µM	> 100 µM	> 100 µM	> 100 µM	> 100 µM	> 100 µM	> 100 µM	> 100 µM
COc1ccc(NC2=C(Sc3nc(C)cc(C)n3)C(=O)N(Cc3ccccc3)C2=O)cc1Cl	> 160 µM	> 160 µM	49.2 µM	> 160 µM	14.4 µM	> 160 µM	> 160 µM	> 160 µM	29.4 µM	> 160 µM	> 160 µM	> 160 µM	33.9 µM	> 160 µM	108 µM	> 160 µM	84.6 µM	> 160 µM	> 160 µM	> 160 µM
CCOC(=O)c1sc(=S)c2c(C(=O)c3ccccc3)c(C(=O)c3ccccc3)sc2c1C(=O)OCC	2.01 µM	5.93 µM	6.8 µM	> 100 µM	3.58 µM	> 100 µM	4.07 µM	> 100 µM	4.74 µM	90.1 µM	3.45 µM	25.7 µM	2.38 µM	5.76 µM	5.24 µM	85.7 µM	9.16 µM	> 100 µM	4.25 µM	> 100 µM
CC[C@@]1(O)C(=O)NCc2c1cc1n(c2=O)Cc2cc3cc4c(cc3nc2-1)OCO4	14.2 µM	> 95.5 µM	0.672 µM	14.4 µM	0.118 µM	0.414 µM	0.13 µM	2.02 µM	1.22 µM	> 26.9 µM	14.1 µM	> 100 µM	1.23 µM	27.8 µM	1.59 µM	63.4 µM	0.235 µM	20.4 µM	0.352 µM	> 26.3 µM
C[C@]12CC[C@H]3[C@@H](CCC4=CC(=O)CC[C@@H]43)[C@@H]1CC[C@@H]2OC1(O)C(=O)c2ccccc2C1=O	–	> 100 µM	–	83.5 µM	–	92.8 µM	–	66.7 µM	–	> 100 µM	–	> 100 µM	–	35 µM	–	> 100 µM	–	> 100 µM	–	> 100 µM
Cc1sc2ncnc(Sc3nc4ccccc4[nH]3)c2c1C	23.3 µM	60 µM	37.3 µM	> 100 µM	22.2 µM	88.7 µM	20.8 µM	72.4 µM	13.8 µM	63.8 µM	24.7 µM	98.9 µM	22 µM	> 100 µM	33.2 µM	> 100 µM	18.7 µM	52 µM	42.3 µM	> 100 µM
Cn1cnc2c(F)c(Nc3ccc(Br)cc3Cl)c(C(=O)NOCCO)cc21	> 10 µM and 62.9 µM	> 100 µM	> 10 µM and 60.6 µM	> 100 µM	> 10 µM and 62.2 µM	> 100 µM	> 10 µM and 74.6 µM	> 100 µM	0.197 µM and 0.235 µM	6.14 µM and 8.67 µM	0.0212 µM and < 0.0177 µM	0.207 µM and 0.0755 µM	2.4 µM and 0.95 µM	> 100 µM	0.264 µM and 1.34 µM	> 100 µM	0.399 µM and 0.232 µM	> 100 µM	0.0436 µM and 0.0226 µM	> 100 µM
CNC(=O)c1cc(Oc2ccc3nc(NC(=O)Nc4ccc(Cl)c(Cl)c4)sc3c2)ccn1	2.31 µM	5.38 µM	2.26 µM	5.11 µM	> 100 µM	> 100 µM	2.45 µM	6.29 µM	2.66 µM	5.39 µM	–	–	2.24 µM	5.58 µM	2.55 µM	6.75 µM	2.24 µM	4 µM	8.11 µM	> 100 µM
C=C1C(=O)O[C@H]2[C@H]1CC/C(COC(=O)NCCc1ccc(OC)cc1)=C\CC[C@@]1(C)O[C@@H]21	2.19 µM	5.25 µM	1.76 µM	4.22 µM	2.61 µM	6.77 µM	1.92 µM	5.16 µM	1.99 µM	6.19 µM	2.49 µM	6.85 µM	6.23 µM	19.1 µM	2.61 µM	7.32 µM	12.2 µM	27.1 µM	2.51 µM	6.97 µM
CCCCCCC(C)CC(CCCCCC)NCCOC(=O)c1ccc([N+](=O)[O-])cc1 (stereo not given)	7.59 µM and 2.95 µM	23.6 µM and 17.5 µM	–	33.7 µM and 33.5 µM	–	–	–	30.1 µM and 25.6 µM	–	23.9 µM and 23 µM	–	21.4 µM and 16.8 µM	–	28.4 µM and 23.4 µM	–	27 µM and 25.1 µM	–	33.7 µM and 30.7 µM	–	28.8 µM and 28.5 µM
COc1ccc(C2CC(=O)Nc3c2c(C)nn3-c2nc3ccccc3[nH]2)cc1 (stereo not given)	2.54 µM	5.72 µM	3.82 µM	> 33.3 µM	0.0589 µM	0.326 µM	3.64 µM	16.8 µM	2.34 µM	6.72 µM	2.65 µM	8.21 µM	1.82 µM	3.71 µM	2.38 µM	5.26 µM	2.56 µM	6.55 µM	3.33 µM	20.6 µM
O=C(CNC(=O)c1cccc2ccccc12)Nc1ccccc1Oc1cccc(O)c1	1.5 µM	> 25 µM	9.93 µM	> 25 µM	4.84 µM	> 25 µM	9.47 µM	> 25 µM	> 25 µM	> 25 µM	> 25 µM	> 25 µM	1.86 µM	> 25 µM	9.96 µM	> 25 µM	8.22 µM	> 25 µM	3.12 µM	> 25 µM
Cc1c(C(=O)/C=C/c2ccc(O)cc2)nnn1-c1ccnc2c(C(F)(F)F)cccc12	19.5 µM	> 100 µM	> 100 µM	> 100 µM	5.06 µM	30.6 µM	30.1 µM	> 100 µM	34.5 µM	> 100 µM	4.4 µM	22.9 µM	4.81 µM	24.8 µM	21.9 µM	> 100 µM	67.7 µM	> 100 µM	27.1 µM	> 100 µM
COc1ncnc2c(NC3OC(CO)C(O)C3O)ncnc12 (stereo not given)	–	11.1 µM	–	14 µM	–	1.94 µM	–	10 µM	–	0.527 µM	–	> 100 µM	–	> 39.8 µM	–	3.82 µM	–	18 µM	–	13.2 µM
CC1(C)CCSC(/C=C/c2ccccc2)=N1	–	28.5 µM	–	25.6 µM	–	> 100 µM	–	> 100 µM	–	35.9 µM	–	27 µM	–	28.8 µM	–	37.8 µM	–	32.8 µM	–	38.6 µM
COC(=O)Nc1ccc2ccc3c(NC(=O)OC)ccc4ccc1c2c43 (tested in a mixture with another compound)	10.6 µM	45.2 µM	12.2 µM	41.2 µM	7.07 µM	33.7 µM	14.8 µM	> 50 µM	1.62 µM	14.1 µM	21.8 µM	> 50 µM	4.42 µM	> 50 µM	7.98 µM	> 50 µM	7.91 µM	25.4 µM	3.9 µM	> 50 µM
C[C@]12CC[C@H]3[C@@H](CC=C4C[C@@H](O)CC[C@@]43C)[C@@H]1C/C(=C\c1cccc(OCCN3CCOCC3)c1)[C@@H]2O	> 100 µM	> 100 µM	50.7 µM	> 100 µM	13.3 µM	48.7 µM	> 100 µM	> 100 µM	> 100 µM	> 100 µM	16.6 µM	84.3 µM	4.98 µM	23.3 µM	46 µM	> 100 µM	> 100 µM	> 100 µM	28.3 µM	> 100 µM
O=c1c2cc(Br)ccc2oc2ccc(Br)cc12	–	> 100 µM	–	> 100 µM	–	> 100 µM	–	> 100 µM	–	> 100 µM	–	> 100 µM	–	> 100 µM	–	> 100 µM	–	–	–	> 100 µM
CCOC(=O)c1cc2c(cc1Cl)SC(N(c1ccc(F)cc1)S(=O)(=O)c1ccc(OC)cc1)=NS2(=O)=O	13.9 µM	28.3 µM	24.4 µM	54.1 µM	15.6 µM	37.9 µM	16.1 µM	33.9 µM	4.81 µM	19.2 µM	–	–	13.6 µM	26.5 µM	37.7 µM	> 100 µM	35.1 µM	> 100 µM	15.9 µM	30.6 µM
